Measured values reported in article PMC3502614 (Science (New York, N.Y.), 2011).

Target: T1, M. smegmatis RpsA (Mycolicibacterium smegmatis, UniProt A0QYY6)
T1 sequence (A0QYY6 1-479): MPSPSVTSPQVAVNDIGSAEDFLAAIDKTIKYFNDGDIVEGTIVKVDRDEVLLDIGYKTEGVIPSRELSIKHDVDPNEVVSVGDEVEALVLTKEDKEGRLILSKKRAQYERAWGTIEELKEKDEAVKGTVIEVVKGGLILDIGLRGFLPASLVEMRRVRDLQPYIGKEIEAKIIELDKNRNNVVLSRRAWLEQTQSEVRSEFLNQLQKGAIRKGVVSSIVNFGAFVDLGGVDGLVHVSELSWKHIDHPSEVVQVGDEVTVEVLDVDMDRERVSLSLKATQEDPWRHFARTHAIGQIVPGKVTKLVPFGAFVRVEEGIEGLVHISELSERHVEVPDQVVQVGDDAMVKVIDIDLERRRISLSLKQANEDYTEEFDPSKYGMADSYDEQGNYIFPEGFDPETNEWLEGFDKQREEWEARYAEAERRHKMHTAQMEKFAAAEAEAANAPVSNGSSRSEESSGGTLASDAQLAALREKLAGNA
Test: isothermal titration calorimetry
Assay type: binding

O=C(O)c1cnccn1 [POA, 2-pyrazinecarboxylic acid]
weak binding by ITC: RpsA from naturally PZA-resistant M. smegmatis bound to POA only very weakly
